Values after ≈ are worked out from the molar mass of the structure shown. Where two headings read alike, the source gives them in different places.
How the values were obtained:
[1] = target: Bombesin BB1 (Homo sapiens, UniProt P28336); test: Radioligand binding assay, Bombesin BB1; conditions: CONC. 10 μM, hum
Procedure: Methods employed in this study have been adapted from the scientific literature to maximize reliability and reproducibility. Reference standards were run as an integral part of each assay to ensure the validity of the results obtained. Assays were performed under conditions described in the accompanying “Methods” section below. The literature reference(s) for each assay are in the “Literature References” section.
Where presented, IC50 values were determined by a non-linear, least squares regression analysis using MathIQ™ (ID Business Solutions Ltd., UK). Where inhibition constants (KI) are presented, the KI values were calculated using the equation of Cheng and Prusoff (Cheng, Y., Prusoff, W. H., Biochem. Pharmacol. 22:3099-3108, 1973) using the observed IC50 of the tested compound, the concentration of radioligand employed in the assay, and the historical values for the KD of the ligand (obtained experimentally at Ricerca Biosciences, LLC). Where presented, the Hill coefficient (nH), defining the slope of the competitive binding curve, was calculated using MathIQ™. […] Where IC50, KI, and/or nH data are presented without Standard Error of the Mean (SEM), data are insufficient to be quantitative, and the values presented (KI, IC50, nH) should be interpreted with caution. […]

[2] = system: Enterobacteriaceae spp. strains; test: In vitro activity (MIC) against Enterobacteriaceae spp. strains

Sequence of Bombesin BB1 (P28336 whole entry): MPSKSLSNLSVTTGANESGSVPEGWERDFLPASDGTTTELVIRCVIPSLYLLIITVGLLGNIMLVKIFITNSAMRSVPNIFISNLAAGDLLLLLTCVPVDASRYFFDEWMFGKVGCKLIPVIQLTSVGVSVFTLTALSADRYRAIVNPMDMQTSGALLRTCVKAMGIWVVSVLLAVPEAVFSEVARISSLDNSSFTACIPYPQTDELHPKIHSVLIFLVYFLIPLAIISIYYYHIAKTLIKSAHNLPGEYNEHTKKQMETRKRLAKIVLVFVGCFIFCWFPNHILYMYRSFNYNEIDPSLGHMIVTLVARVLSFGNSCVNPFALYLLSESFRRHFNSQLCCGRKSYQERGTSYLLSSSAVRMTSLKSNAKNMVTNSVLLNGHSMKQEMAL

In the case of `CO[C@H]1/C=C/O[C@@]2(C)Oc3c(C)c(O)c4c(O)c(c5c(nc6cc(C)ccn65)c4c3C2=O)NC(=O)/C(C)=C\C=C\[C@H](C)[C@H](O)[C@@H](C)[C@@H](O)[C@@H](C)[C@H](OC(C)=O)[C@@H]1C` [Rifaximin, reference compound], the inhibition at 10 µM [1] is reported as less than 50%, the MIC [2] is reported as 32 µg/mL (≈ 40.7 µM) and the MIC50 [2] is reported as 32 µg/mL (≈ 40.7 µM). It also gave an MIC90 [2] of 32 µg/mL (≈ 40.7 µM), an MIC ([2]; Citrobacter freundii, C. freundii 57) of 16 µg/mL (≈ 20.4 µM) and an MIC ([2]; Citrobacter freundii, C. freundii 58) of 32 µg/mL (≈ 40.7 µM). The MIC ([2]; Citrobacter freundii, C. freundii 65) was 32 µg/mL (≈ 40.7 µM), the MIC ([2]; Citrobacter freundii, C. freundii 68) was 32 µg/mL (≈ 40.7 µM) and the MIC ([2]; Citrobacter freundii, C. freundii 69) was 32 µg/mL (≈ 40.7 µM). For the same compound, the MIC ([2]; Citrobacter freundii, C. freundii 1070) was 32 µg/mL (≈ 40.7 µM), the MIC ([2]; Citrobacter freundii, C. freundii 1073) was 32 µg/mL (≈ 40.7 µM) and the MIC ([2]; Citrobacter freundii, C. freundii 1075) was 32 µg/mL (≈ 40.7 µM). For the same compound, the MIC ([2]; Enterobacter cloacae, E. cloacae 1) was 32 µg/mL (≈ 40.7 µM), the MIC ([2]; Enterobacter cloacae, E. cloacae 3) was 32 µg/mL (≈ 40.7 µM) and the MIC ([2]; Enterobacter cloacae, E. cloacae 8) was 32 µg/mL (≈ 40.7 µM). It also gave an MIC ([2]; Enterobacter cloacae, E. cloacae 12) of 32 µg/mL (≈ 40.7 µM), an MIC ([2]; Enterobacter cloacae, E. cloacae 13) of 32 µg/mL (≈ 40.7 µM) and an MIC ([2]; Enterobacter cloacae, E. cloacae 14) of 32 µg/mL (≈ 40.7 µM). It also gave an MIC ([2]; Enterobacter cloacae, E. cloacae 16) of 32 µg/mL (≈ 40.7 µM), an MIC ([2]; Enterobacter cloacae, E. cloacae 20) of 32 µg/mL (≈ 40.7 µM) and an MIC ([2]; Enterobacter cloacae, E. cloacae 321) of 32 µg/mL (≈ 40.7 µM). It also gave an MIC ([2]; Enterobacter cloacae, E. cloacae 348) of 32 µg/mL (≈ 40.7 µM), an MIC ([2]; Enterobacter cloacae, E. cloacae 349) of 32 µg/mL (≈ 40.7 µM) and an MIC ([2]; Enterobacter cloacae, E. cloacae 358) of 32 µg/mL (≈ 40.7 µM). For the same compound, the MIC ([2]; Enterobacter cloacae, E. cloacae 367) was 32 µg/mL (≈ 40.7 µM), the MIC ([2]; Enterobacter cloacae, E. cloacae 369) was 32 µg/mL (≈ 40.7 µM) and the “Range (MIC)” value ([2]; Enterobacteriaceae spp. strains) was 8 to 32 µg/mL. For the same compound, the MIC ([2]; Escherichia coli, ATCC E. Coli 25922) was 16 µg/mL (≈ 20.4 µM), the MIC ([2]; Escherichia coli, E. coli 6) was 32 µg/mL (≈ 40.7 µM) and the MIC ([2]; Escherichia coli, E. coli 15) was 16 µg/mL (≈ 20.4 µM). For the same compound, the MIC ([2]; Escherichia coli, E. coli 34) was 32 µg/mL (≈ 40.7 µM), the MIC ([2]; Escherichia coli, E. coli 37) was 8 µg/mL (≈ 10.2 µM) and the MIC ([2]; Escherichia coli, E. coli 41) was 16 µg/mL (≈ 20.4 µM). The MIC ([2]; Escherichia coli, E. coli 43) was 16 µg/mL (≈ 20.4 µM), the MIC ([2]; Escherichia coli, E. coli 44) was 16 µg/mL (≈ 20.4 µM) and the MIC ([2]; Escherichia coli, E. coli 46) was 16 µg/mL (≈ 20.4 µM). For the same compound, the MIC ([2]; Escherichia coli, E. coli 47) was 32 µg/mL (≈ 40.7 µM), the MIC ([2]; Escherichia coli, E. coli 48) was 32 µg/mL (≈ 40.7 µM) and the MIC ([2]; Escherichia coli, E. coli 49) was 32 µg/mL (≈ 40.7 µM). For the same compound, the MIC ([2]; Escherichia coli, E. coli 56) was 32 µg/mL (≈ 40.7 µM), the MIC ([2]; Escherichia coli, E. coli 62) was 32 µg/mL (≈ 40.7 µM) and the MIC ([2]; Escherichia coli, E. coli 71) was 8 µg/mL (≈ 10.2 µM). The MIC ([2]; Escherichia coli, E. coli 90) was 16 µg/mL (≈ 20.4 µM), the MIC ([2]; Escherichia coli, E. coli 92) was 32 µg/mL (≈ 40.7 µM) and the MIC ([2]; Escherichia coli, E. coli 93) was 32 µg/mL (≈ 40.7 µM). For the same compound, the MIC ([2]; Escherichia coli, E. coli 95) was 32 µg/mL (≈ 40.7 µM), the MIC ([2]; Escherichia coli, E. coli 96) was 8 µg/mL (≈ 10.2 µM) and the MIC ([2]; Escherichia coli, E. coli 97) was 32 µg/mL (≈ 40.7 µM). For the same compound, the MIC ([2]; Escherichia coli, E. coli 100) was 32 µg/mL (≈ 40.7 µM), the MIC ([2]; Escherichia coli, E. coli 102) was 16 µg/mL (≈ 20.4 µM) and the MIC ([2]; Escherichia coli, E. coli 103) was 32 µg/mL (≈ 40.7 µM). For the same compound, the MIC ([2]; Escherichia coli, E. coli 109) was 32 µg/mL (≈ 40.7 µM), the MIC ([2]; Escherichia coli, E. coli 110) was 32 µg/mL (≈ 40.7 µM) and the MIC ([2]; Escherichia coli, E. coli 112) was 32 µg/mL (≈ 40.7 µM). It also gave an MIC ([2]; Escherichia coli, E. coli 113) of 32 µg/mL (≈ 40.7 µM), an MIC ([2]; Escherichia coli, E. coli 117) of 16 µg/mL (≈ 20.4 µM) and an MIC ([2]; Escherichia coli, E. coli 118) of 32 µg/mL (≈ 40.7 µM). For the same compound, the MIC ([2]; Escherichia coli, E. coli 120) was 32 µg/mL (≈ 40.7 µM), the MIC ([2]; Escherichia coli, E. coli 140) was 32 µg/mL (≈ 40.7 µM) and the MIC ([2]; Escherichia coli, E. coli 171) was 32 µg/mL (≈ 40.7 µM). It also gave an MIC ([2]; Escherichia coli, E. coli 342) of 32 µg/mL (≈ 40.7 µM), an MIC ([2]; Escherichia coli, E. coli 343) of 32 µg/mL (≈ 40.7 µM) and an MIC ([2]; Escherichia coli, E. coli 345) of 32 µg/mL (≈ 40.7 µM). The MIC ([2]; Escherichia coli, E. coli 349) was 32 µg/mL (≈ 40.7 µM), the MIC ([2]; Escherichia coli, E. coli 351) was 32 µg/mL (≈ 40.7 µM) and the MIC ([2]; Klebsiella aerogenes, E. aerogenes 235) was 32 µg/mL (≈ 40.7 µM). The MIC ([2]; Klebsiella aerogenes, E. aerogenes 281) was 32 µg/mL (≈ 40.7 µM).

Source: patent publication US9364467B2 (Salix Pharmaceuticals, Ltd, priority 2012, dated 2016)
